Experimental data published in PubChem BioAssay AID1963827 (Molecular Pharmacology Branch, DTP, NCI, 2024).

System: 994946-033-R-J1-PDC complex spheroid viability
Test: Anticancer human tumor 994946-033-R-J1-PDC patient-derived melanoma cell line growth inhibition [POLQ]
Settings: for IC50: curve of first compound; for viability, T/C: stronger effect = lower value
Protocol: Multicellular complex tumor spheroid response to Polymerase (POL) inhibitors (novobiocin, ART-558, RP6685) in combination with a variety of drugs and investigational agents in selected tumor cell lines
The POL inhibitors (novobiocin, ART-558, and RP6685) were evaluated both individually and in combination with standard of care and investigational anticancer small molecules within a complex spheroid model of solid tumors. . Complex spheroids include a stromal component modeled by human endothelial cells (HUVEC) and fibroblasts modeled by human mesenchymal stem cells (MSCs). The concentration ranges selected for each drug and investigational agent were based upon clinically achievable concentrations if the clinical Cmax of the agent was known.
Compounds. The drugs and investigational agents: novobiocin (NSC847541), ART-558 (NSC835418), RP-6685 (NSC848927), peposertib (NSC802822), ceralasertib (NSC780249), elimusertib (NSC800525), camonsertib (NSC841442), AZD-1390 (NSC803789), olaparib (NSC753686), talazoparib (NSC767125), rucaparib (NSC756644), sotorasib (NSC818433), MRTX-1133 (NSC836407), SN-38 (NSC673596), topotecan (NSC609699), epotoside (NSC141540), doxorubicin (NSC123127), gemcitabine (NSC613327), 5-fluorouracil (NSC19893), paclitaxel (NSC125973), vemurafenib (NSC761431), MSA-2 (NSC828583), SN-011 (NSC837082), adavosertib (NSC754352), prexasertib (NSC758257), carboplatin (NSC241240) and oxaliplatin (NSC266046), were obtained from the National Cancer Institute (NCI) Developmental Therapeutics Program Chemical Repository (21). The FDA-approved anticancer drug set is available from the Developmental Therapeutics Program at https://dtp.cancer.gov/organization/dscb/obtaining/. […] The stock solutions were prepared in dimethyl sulfoxide (DMSO, Sigma-Aldrich, St. Louis, MO, cat. D2650), except for the platinum compounds which were prepared in saline (Quality Biological, Gaithersburg, MD, cat. 114-055-101), at 800-fold the tested concentration and stored at -70 degrees C prior to their use. All drugs and investigational agents were tested over a range starting from a high concentration at or near the clinical Cmax and decreasing in half-log increments. If the clinical Cmax for an agent had not been determined, the highest concentration tested was 10 microM, except for SN-38, which was tested at a high concentration of 1 microM.
Cell Culture. All cells were maintained in an incubator at 37 degrees C and 5% CO2 with 95% humidity. The PDC lines were cultured according to standard operating procedures established by the NCI PDMR (https://pdmr.cancer.gov). Table 3 of the manuscript, lists the cell lines along with the number of the three cell types plated to form the mct-spheroids and media for tumor cell growth. After thawing, all PDC lines, except 997537-175-T-J1-PDC and 415267-285-R-J2-PDC, were cultured in Matrigel-coated flasks prepared with a working solution of 1X Ham's F-12 nutrient mix, without supplementation (Thermo Fisher Scientific, cat. 11765054), 100 U/mL penicillin-streptomycin (Thermo Fisher Scientific, cat. 15140122), and 2.5% Matrigel (Corning Inc., Corning, NY, cat. 354248) for the first three passages. The two PDC lines 997537-175-T-J1-PDC and 415267-285-R-J2-PDC were cultured on uncoated flasks. The 857933-349-R-J2-PDC line was cultured in 6C/Colon 1B media containing advanced DMEM/F-12 (Thermo Fisher Scientific, cat. 12634028), 10 mM HEPES (Thermo Fisher Scientific, cat. 15630080), 1X GlutaMAX supplement (Thermo Fisher Scientific, cat. 35050061), 0.1 mg/mL primocin (InvivoGen, San Diego, CA, cat. ant-pm-2), 10% defined fetal bovine serum, heat inactivated (HyClone Laboratories Inc., Logan, UT, cat. SH30070.03HI), 50% L-WRN conditioned media (ATCC, cat. CRL-3276), 1.25 mM N-Acetyl-L-cysteine (Sigma-Aldrich, cat. A9165), 10 mM nicotinamide (Sigma-Aldrich, cat. N0636), 1X B-27 supplement (Thermo Fisher Scientific, cat. 17504044), 1X N-2 supplement (Thermo Fisher Scientific, cat. […]

[1] = second compound 0.0316 µM, first compound 0.0316 µM
[2] = second compound 0.0316 µM, first compound 0.1 µM
[3] = second compound 0.0316 µM, first compound 0.316 µM
[4] = second compound 0.0316 µM, first compound 1 µM
[5] = second compound 0.0316 µM, first compound 3.16 µM
[6] = second compound 0.0316 µM, first compound 10 µM
[7] = second compound 0.1 µM, first compound 0.0316 µM
[8] = second compound 0.1 µM, first compound 0.1 µM
[9] = second compound 0.1 µM, first compound 0.316 µM
[10] = second compound 0.1 µM, first compound 1 µM
[11] = second compound 0.1 µM, first compound 3.16 µM
[12] = second compound 0.1 µM, first compound 10 µM
[13] = second compound 0.316 µM, first compound 0.0316 µM
[14] = second compound 0.316 µM, first compound 0.1 µM
[15] = second compound 0.316 µM, first compound 0.316 µM
[16] = second compound 0.316 µM, first compound 1 µM
[17] = second compound 0.316 µM, first compound 3.16 µM
[18] = second compound 0.316 µM, first compound 10 µM
[19] = second compound 1 µM, first compound 0.0316 µM
[20] = second compound 1 µM, first compound 0.1 µM
[21] = second compound 1 µM, first compound 0.316 µM
[22] = second compound 1 µM, first compound 1 µM
[23] = second compound 1 µM, first compound 3.16 µM
[24] = second compound 1 µM, first compound 10 µM
[25] = second compound 3.16 µM, first compound 0.0316 µM
[26] = second compound 3.16 µM, first compound 0.1 µM
[27] = second compound 3.16 µM, first compound 0.316 µM
[28] = second compound 3.16 µM, first compound 1 µM
[29] = second compound 3.16 µM, first compound 3.16 µM
[30] = second compound 3.16 µM, first compound 10 µM
[31] = second compound 10 µM, first compound 0.0316 µM
[32] = second compound 10 µM, first compound 0.1 µM
[33] = second compound 10 µM, first compound 0.316 µM
[34] = second compound 10 µM, first compound 1 µM
[35] = second compound 10 µM, first compound 3.16 µM
[36] = second compound 10 µM, first compound 10 µM
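Further: spheroids exposed to drugs for 7 days.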
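Wherever viability, T/C is given: 100% = DMSO vehicle treated spheroids.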

## CC(C)n1c(=O)n(C)c2cnc3cc(F)c(-c4ccc(OCCCN5CCCCC5)nc4)cc3c21 + COC1C(OC(N)=O)C(O)C(Oc2ccc3c(O)c(NC(=O)c4ccc(O)c(CC=C(C)C)c4)c(=O)oc3c2C)OC1(C)C
Second compound 0.0316 µM
  IC50: 4.59 µM
Second compound 0.1 µM
  IC50: 5.03 µM
Second compound 0.316 µM
  IC50: 8.57 µM
Second compound 1 µM
  IC50: 5.25 µM
Second compound 3.16 µM
  IC50: > 10 µM
Second compound 10 µM
  IC50: 6.35 µM
[1]
  viability, T/C: 81.5%
[2]
  viability, T/C: 65.5%
[3]
  viability, T/C: 81.1%
[4]
  viability, T/C: 59.1%
[5]
  viability, T/C: 60%
[6]
  viability, T/C: 36.8%
[7]
  viability, T/C: 73.7%
[8]
  viability, T/C: 100%
[9]
  viability, T/C: 78.3%
[10]
  viability, T/C: 69.8%
[11]
  viability, T/C: 65.2%
[12]
  viability, T/C: 31.6%
[13]
  viability, T/C: 74.5%
[14]
  viability, T/C: 76.7%
[15]
  viability, T/C: 68.2%
[16]
  viability, T/C: 68.3%
[17]
  viability, T/C: 79.8%
[18]
  viability, T/C: 46.5%
[19]
  viability, T/C: 86.7%
[20]
  viability, T/C: 86.5%
[21]
  viability, T/C: 87%
[22]
  viability, T/C: 102%
[23]
  viability, T/C: 64.5%
[24]
  viability, T/C: 31.6%
[25]
  viability, T/C: 81.8%
[26]
  viability, T/C: 68.5%
[27]
  viability, T/C: 92.9%
[28]
  viability, T/C: 93.8%
[29]
  viability, T/C: 66.1%
[30]
  viability, T/C: 50.6%
[31]
  viability, T/C: 76.1%
[32]
  viability, T/C: 65.9%
[33]
  viability, T/C: 66.1%
[34]
  viability, T/C: 82%
[35]
  viability, T/C: 62.1%
[36]
  viability, T/C: 40.1%

## O=C(c1cc(Cc2n[nH]c(=O)c3ccccc23)ccc1F)N1CCN(C(=O)C2CC2)CC1 + COC1C(OC(N)=O)C(O)C(Oc2ccc3c(O)c(NC(=O)c4ccc(O)c(CC=C(C)C)c4)c(=O)oc3c2C)OC1(C)C
Second compound 0.0316 µM
  IC50: 4.75 µM
Second compound 0.1 µM
  IC50: 4.62 µM
Second compound 0.316 µM
  IC50: 4.96 µM
Second compound 1 µM
  IC50: 4.03 µM
Second compound 3.16 µM
  IC50: 4.79 µM
Second compound 10 µM
  IC50: 4.21 µM
[1]
  viability, T/C: 56.5%
[2]
  viability, T/C: 91.1%
[3]
  viability, T/C: 100%
[4]
  viability, T/C: 87.1%
[5]
  viability, T/C: 57.7%
[6]
  viability, T/C: 35.9%
[7]
  viability, T/C: 110%
[8]
  viability, T/C: 81.5%
[9]
  viability, T/C: 87.1%
[10]
  viability, T/C: 73.5%
[11]
  viability, T/C: 72.4%
[12]
  viability, T/C: 22.2%
[13]
  viability, T/C: 93.2%
[14]
  viability, T/C: 82.2%
[15]
  viability, T/C: 86.4%
[16]
  viability, T/C: 67.7%
[17]
  viability, T/C: 69.8%
[18]
  viability, T/C: 28.9%
[19]
  viability, T/C: 99.1%
[20]
  viability, T/C: 84.5%
[21]
  viability, T/C: 90.2%
[22]
  viability, T/C: 69.1%
[23]
  viability, T/C: 58.1%
[24]
  viability, T/C: 28.1%
[25]
  viability, T/C: 84.7%
[26]
  viability, T/C: 83.2%
[27]
  viability, T/C: 88.4%
[28]
  viability, T/C: 76.6%
[29]
  viability, T/C: 60.4%
[30]
  viability, T/C: 32.2%
[31]
  viability, T/C: 95.5%
[32]
  viability, T/C: 79.2%
[33]
  viability, T/C: 86%
[34]
  viability, T/C: 69.9%
[35]
  viability, T/C: 60.8%
[36]
  viability, T/C: 27.1%
